{"source": "patent US10235756B2", "about": "“Vascular analysis methods and apparatus” (Bio-Tree Systems, Inc., priority 2009, dated 2019)", "key": {"[1]": {"test_system": "human non-small cell lung tumor cell line (A549) subcutaneous tumors", "assay": "Xenotopic tumor model, response to antiangiogenic therapy (vascular casts, micro CT)", "assay_type": "in vivo, mouse", "description": "A tumor model can be generated by inoculating human non-small cell lung tumor cell line (A549 from ATCC, Inc.) subcutaneously in immunodeficient mice (SCID). SCID male mice (6-8 weeks old from Charles River Inc.) are inoculated subcutaneously in the lower back with a suspension of 1×10^6 human lung tumor cells (A549) in 0.2 ml of PBS. All mice are fed normal chow diet throughout the duration of the experiment. All mice weights are measured throughout the experiment. Tumor size is measured with calipers twice-a-week and tumor volume is calculated using the formula Length^2×Width×0.52. All mice are randomized into two treatment groups (approximately 10 mice per group) when the median tumor volume reaches approximately 500 mm^3. The treatment groups can be treated according to the following schedule using intraperitoneal (i.p.) administration of either a control composition or an anti-angiogenic compound. For example, different levels of an anti-angiogenic compound can be used and the results compared to a control group that is not treated with an anti-angiogenic compound (e.g., Avastin® available from Genentech, South San Francisco, Calif.). For example:\nGroup 1: Control group—treated with saline/PBS twice a week.\nGroup 2: High Avastin®—treated with Avastin® at 5 mg/kg/i.p. twice a week.\nGroup 3: Low Avastin®—treated with Avastin® at 0.5 mg/kg/i.p. twice a week.\nExperiments are terminated 1.5 weeks after initial treatment.\nAt the end-point, all mice are anesthetized and systemically perfused with a casting agent.\nIn some embodiments, a tissue, for example, a tumor tissue, is perfused with a contrast and/or a casting agent prior to image acquisition. Methods of tissue perfusion are well known to those of skill in the art. In some embodiments, a tissue is perfused with Mercox, a casting agent available, for example, from Ladd Research, Williston, Vt. Mercox perfusion can be performed, as follows. An initial anticoagulation step for each animal is performed using an i.v. injection of heparin (10,000 U/ml, 0.3 cc/mouse). After 30 minutes, the animals are anesthetized. Each animal's heart is cannulated and the animal perfused with warm physiological saline at physiological pressure (with an open vein draining the organ or with an open vena cava). Perfusion is continued until the organ or animal is clear of blood. Mercox monomer is filtered through a 0.5 μm filter and a casting resin is prepared by mixing 8 ml Mercox, 2 ml methylmethacrylate, and 0.3 ml catalyst. The resin is infused through the same cannula until the onset of polymerization (the resin changes color to brown and emits heat, ˜10 min). The organ or animal is carefully immersed in a 60° C. water bath for 2 hours (or overnight in a sealed container). The tissue is removed by incubating in alternating rinses of 5% KOH and distilled water (for example in a 60° C. water bath sealed) followed by thorough rinsing in distilled water. The cast is cleaned in 5% formic acid for 15 minutes and rinsed thoroughly in distilled water and frozen in distilled water. The resulting block of ice is lyophilized (care should be taken not to melt the ice, the ice should […] as it lyophilizes). The resulting cast can be analyzed to identify one or more structural characteristics of interest.\nXenotopic mouse models obtained as described in Example 7 can be treated with either a control solution of saline/PBS or an anti-angiogenic preparation of Avastin® at 0.5 mg/kg/i.p. as described above. At the end-point, vascular casts can be prepared as described in Example 8 above and may be analyzed for two treated mice (both treated with Avastin® at 0.5 mg/kg/i.p.) and one control mouse. However, other experimental configurations may be used. The resulting vascular casts can be scanned using a micro CT-scanner and exemplary results of the structural analysis are shown in FIGS. 44-47. […] The blood vessel population distributions were consistent for both treated animals. […]"}, "[2]": {"test_system": "glioblastoma", "assay": "Vascular biomarker analysis of control and Avastin-treated glioblastoma (3D tumor vasculature, tumor wrap)", "assay_type": "in vivo", "description": "X-ray images of a control tumor and an Avastin-treated tumor are shown side by side in FIG. 43. […] FIGS. 46 and 47 show exemplary tumor wraps of the same control and Avastin-treated tumors. FIGS. 48-52 exemplify visualization of the distribution of microvascular density within two exemplary tumors.\nIn some embodiments, the assessment of vascular hot spots and/or necrotic regions within a diseased tissue, for example a malignant tumor, may be used in the evaluation of a treatment targeting said diseased tissue, for example the administration of a chemotherapeutic agent. FIG. 54 exemplify a comparison of vascular hot spots and necrotic regions in glioblastoma treated with Avastin to vascular hot spots and necrotic regions in non-treated control glioblastoma. […] Assessment of an exemplary vascular density related biomarker, total vessel density (number of vessels per given volume), in Avastin-treated glioblastoma and untreated controls is depicted in FIG. 56. Assessment of another exemplary vascular density related biomarker, mean vessel density (average number of vessels over a number of volume units, for example defined by the boundary of a tumor), in Avastin-treated glioblastoma and untreated controls as depicted in FIG. 57. Assessment of an exemplary vascular density related biomarker, total vessel volume density (number of voxels belonging to a vessel within a given volume), in Avastin-treated glioblastoma and untreated controls is depicted in FIG. 58. Assessment of another exemplary vascular density related biomarker, mean vessel volume density (average number of voxels belonging to a vessel within a number of volume units, for example defined by the boundary of a tumor), in Avastin-treated glioblastoma and untreated controls as depicted in FIG. 59. In some embodiments, a boundary of a tissue, for example a tumor, are determined based on vascular imaging and modeling data, and a subsequent assessment qualifying a voxel within those boundaries is carried out. In some embodiments, a biomarker is […] in a plurality of such qualified voxels. For example, the boundary of a solid tumor may be determined based on the abnormal vasculature associated with malignant tissue, for example by “tumor-wrap”, and vascular density related biomarkers may be assessed for tissue within that boundary.\nIt should be appreciated, that the biomarkers related to by some aspects of this invention may be useful in a wide variety of diagnostic and therapeutic modalities and applications, some non-limiting examples of which are described herein."}, "[3]": {"test_system": "vasculature", "assay": "Morphological features as a function of vessel diameter, control vs treated vasculature", "assay_type": "in vivo", "settings": "control vasculature vs vasculature treated with Avastin, FIGS. 30-32", "description": "As discussed above, computed morphological features may be used to compare the same features obtained from healthy tissue, or to compare the same features extracted from a bounded vasculature at different points in time to, for example, assess the effectiveness of treatment. FIGS. 30-33 illustrate examples of using various morphological properties described herein to, for example, quantify diseased vasculature and/or assess the effectiveness of a particular treatment. FIGS. 30-32 illustrate plots of a respective morphological feature as a function of vessel diameter for a control vasculature and for a vasculature treated with Avastin. […] Moreover, the impact may differ depending on the vessel size. That is, differences between the control and treated plots may be larger or smaller depending on the diameter of the vessel. Applicant has appreciated that the differences may be quantified to define a range wherein differences are different enough to help determine which vessel diameters are being targeted and impacted by the treatment."}, "[4]": {"test_system": "mouse tumor model generated using H1975 cells", "assay": "Hot spot analysis in mouse tumor model", "assay_type": "in vivo", "description": "Applicant has appreciated that vascular information (e.g., based on vascular geometry) within a region (e.g., a wrapped 3D region) may be analyzed to identify one or more hot spots. For example, a threshold number of poker chips may be identified as a threshold for a hot spot within a unit volume of a tumor. The relative amount (e.g., percentage) of tumor vasculature that is represented by a hot spot then may be determined. This value may be used to evaluate the tumor (e.g., for diagnostic or prognostic purposes) or to evaluate a tumor response to therapy. In a non-limiting example, a hot spot may be defined as a cubic millimeter that contains more than 10,000 poker chips. FIGS. 73 and 74 illustrate experiments where the percentage represented by the hot spot regions (e.g., as a percentage of unit volumes within a tumor volume that are above the threshold for defining a hotspot) are evaluated in a mouse tumor model in response to Avastin treatment. The mouse tumor model was generated using H1975 cells. Mice were compared with and without Avastin treatment (Avastin provided for 10 days as described herein). The tumors analyzed were approximately 100 cubic mm in size. […]"}, "[5]": {"settings": "0.5 mg/kg/i.p., treated vs untreated tumors"}, "[6]": {"settings": "Avastin-treated vs non-treated control glioblastoma, FIG. 55"}}}
{"substance": "bevacizumab [Avastin]", "values": [{"measurement": "mean tumor volumes", "setting": "[1]; 0.5 mg/kg/i.p., treated vs control group at the end of the experiment", "value": "did not differ significantly"}, {"measurement": "blood vessel density", "setting": "[1]; 0.5 mg/kg/i.p., treated vs control, FIGS. 54-67", "value": "differences in blood vessel density were detected"}, {"measurement": "percentage of middle diameter sized vessels", "setting": "[1]; [5]", "value": "higher percentage"}, {"measurement": "small diameter sized vessels, less than untreated tumors", "setting": "[1]; [5]", "value": 20, "unit": "%"}, {"measurement": "vessel population ratio between large and middle size vessels", "setting": "[1]; large approximately 147-161 μm, middle approximately 33-77 μm, after treatment", "value": "decreased"}, {"measurement": "vessel population ratio between small and middle size vessels", "setting": "[1]; small approximately 21-35 μm, middle approximately 35-49 μm, after inhibitor treatment", "value": "decreased"}, {"measurement": "hot spot density", "setting": "[2]; [6]", "value": "significant decrease"}, {"measurement": "necrotic region volume", "setting": "[2]; [6]", "value": "significant increase"}, {"measurement": "vessel volume density", "setting": "[2]; [6]", "value": "significant decrease"}, {"measurement": "frequency of microvascular density bins", "setting": "[2]; control vs treated tumor, FIG. 53", "value": "different microvascular density bin distribution"}, {"measurement": "morphological features as a function of vessel diameter", "setting": "[3]", "value": "there are differences"}, {"measurement": "mean percentage of hot spot regions", "setting": "[4]; Avastin provided for 10 days, over the time of the experiment, FIG. 73", "value": "decrease"}, {"measurement": "percentage of hot spot regions after treatment", "setting": "[4]; change of about 40% to about 10%, Avastin for 10 days, hot spot = cubic millimeter with more than 10,000 poker chips", "value": "about 10%"}]}
